In the NIST ThermoML archive (doi:10.1016/j.jct.2005.10.009):

Assay: molar heat capacity at constant pressure; xn = mol fraction of the nth substance listed
Conditions: 101 kPa, Liquid, Small sample (50 mg) DSC

CCCCCCCCCCO [decan-1-ol] + CCCCCCC
molar heat capacity at constant pressure [J/K/mol]
Conditions	x1 = 0.0506	x1 = 0.0979	x1 = 0.1541	x1 = 0.2543	x1 = 0.3757	x1 = 0.5378	x1 = 0.7551	x1 = 0.9008	x1 = 1
290.91 K	235.98	243.78	252.15	266.07	282.7	304.21	333.09	351.55	364.49
291.15 K	236.08	243.9	252.2	266.16	282.63	304.17	333.35	351.9	364.8
292.15 K	236.53	244.42	252.79	266.99	283.4	305.3	334.38	353.11	366.05
293.15 K	237.09	245.13	253.5	267.69	284.09	306.17	335.4	354.31	367.19
294.15 K	237.67	245.8	254.28	268.44	284.97	307.04	336.39	355.23	368.25
295.15 K	238.27	246.44	255.06	269.19	285.92	308.08	337.47	356.26	369.35
296.15 K	238.89	247.13	255.82	269.75	286.81	308.89	338.44	357.26	370.35
297.15 K	239.51	247.87	256.61	270.59	287.73	309.97	339.61	358.4	371.6
298.15 K	239.86	248.38	257.16	271.36	288.4	310.74	340.46	359.54	372.77
299.15 K	240.3	248.86	257.8	272.19	289.09	311.53	341.42	360.58	373.71
300.15 K	240.83	249.51	258.45	272.99	289.92	312.43	342.44	361.76	374.91
301.15 K	241.28	250.01	259.03	273.68	290.74	313.24	343.35	362.66	375.89
302.15 K	241.86	250.66	259.8	274.46	291.61	314.17	344.4	363.81	377.05
303.15 K	242.35	251.17	260.34	275.23	292.47	315.15	345.4	364.87	378.2
304.15 K	242.86	251.87	261.18	276.03	293.43	316.13	346.52	366.04	379.47
305.15 K	243.39	252.56	261.84	276.84	294.24	317.05	347.59	367.12	380.58
306.15 K	243.87	253.07	262.53	277.6	295.15	318	348.57	368.24	381.75
307.15 K	244.14	253.41	262.92	278.04	295.57	318.55	349.26	368.97	382.43
308.15 K	245.18	254.65	264.24	279.52	297.18	320.29	351.13	370.98	384.6
309.15 K	245.41	255.04	264.68	280.05	297.76	320.96	351.89	371.76	385.42
310.15 K	245.95	255.58	265.32	280.82	298.67	321.92	352.97	372.9	386.61
311.15 K	246.43	256.31	266.13	281.69	299.62	323.01	354.17	374.19	387.89
312.15 K	246.88	256.87	266.75	282.41	300.41	323.89	355.15	375.27	389.03
313.15 K	247.31	257.46	267.42	283.25	301.36	324.89	356.22	376.4	390.28
314.15 K	247.77	258.06	268.13	284.06	302.25	325.9	357.35	377.6	391.58
315.15 K	248.34	258.68	268.86	284.88	303.16	326.94	358.54	378.81	392.8
316.15 K	248.75	259.2	269.56	285.67	304.03	327.84	359.56	379.98	394.11
317.15 K	249.2	259.91	270.2	286.49	304.91	328.86	360.67	381.22	395.3
318.15 K	249.65	260.46	270.95	287.25	305.87	329.91	361.79	382.38	396.66
318.39 K	249.73	260.52	271.04	287.43	306.02	330.09	362.01	382.62	396.93
